Literature values, collected in PMC9516332 (Frontiers in Oncology, 2022).
Where two headings read alike, the source gives them in different places.

Experiments:
Settings in all cases: cited from earlier work
[1] = molecular target: panel of 255 wild-type kinases (Homo sapiens, UniProt P35916)
[2] = molecular target: panel of 255 wild-type kinases (Homo sapiens, UniProt P45983)
[3] = molecular target: T1, panel of 255 wild-type kinases (Homo sapiens, UniProt P42680)
T1 sequence (P42680 1-631): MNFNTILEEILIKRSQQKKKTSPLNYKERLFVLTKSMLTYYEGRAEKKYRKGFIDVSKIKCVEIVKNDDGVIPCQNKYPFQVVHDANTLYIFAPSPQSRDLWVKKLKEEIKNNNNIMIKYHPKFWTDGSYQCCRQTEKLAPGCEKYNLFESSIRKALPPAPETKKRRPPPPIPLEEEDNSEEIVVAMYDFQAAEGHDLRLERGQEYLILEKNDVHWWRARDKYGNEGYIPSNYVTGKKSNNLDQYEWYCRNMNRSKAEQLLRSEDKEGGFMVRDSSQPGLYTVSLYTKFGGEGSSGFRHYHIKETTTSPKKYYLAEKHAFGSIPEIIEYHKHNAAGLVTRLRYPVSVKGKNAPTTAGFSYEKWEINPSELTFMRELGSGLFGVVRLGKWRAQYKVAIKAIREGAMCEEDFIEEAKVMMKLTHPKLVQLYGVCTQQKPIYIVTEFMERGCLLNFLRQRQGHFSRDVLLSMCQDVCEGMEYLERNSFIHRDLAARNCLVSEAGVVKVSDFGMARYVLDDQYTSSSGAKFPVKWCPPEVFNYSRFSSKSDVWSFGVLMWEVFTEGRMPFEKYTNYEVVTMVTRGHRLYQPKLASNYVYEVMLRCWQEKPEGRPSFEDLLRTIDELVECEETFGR

[4] = molecular target: panel of 255 wild-type kinases (Homo sapiens, UniProt Q5VT25)
[5] = molecular target: panel of 255 wild-type kinases (Homo sapiens, UniProt P11802)
[6] = molecular target: T2, panel of 255 wild-type kinases (Homo sapiens, UniProt Q9H093)
T2 sequence (Q9H093 1-628): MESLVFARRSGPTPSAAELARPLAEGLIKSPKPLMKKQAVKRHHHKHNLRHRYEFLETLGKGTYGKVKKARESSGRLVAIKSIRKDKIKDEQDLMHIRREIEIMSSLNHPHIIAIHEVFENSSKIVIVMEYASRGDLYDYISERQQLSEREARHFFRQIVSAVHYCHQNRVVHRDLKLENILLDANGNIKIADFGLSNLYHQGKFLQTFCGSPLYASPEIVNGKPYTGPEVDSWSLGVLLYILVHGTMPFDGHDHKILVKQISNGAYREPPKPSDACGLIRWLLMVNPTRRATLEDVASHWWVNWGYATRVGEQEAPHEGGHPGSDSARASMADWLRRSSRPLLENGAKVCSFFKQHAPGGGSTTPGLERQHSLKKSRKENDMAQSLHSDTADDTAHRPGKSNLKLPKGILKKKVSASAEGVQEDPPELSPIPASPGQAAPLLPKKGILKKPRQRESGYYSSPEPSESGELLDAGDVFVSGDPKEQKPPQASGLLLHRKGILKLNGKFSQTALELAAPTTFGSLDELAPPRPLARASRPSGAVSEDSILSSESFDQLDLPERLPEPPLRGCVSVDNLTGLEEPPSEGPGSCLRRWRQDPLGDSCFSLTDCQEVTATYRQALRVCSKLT

[7] = molecular target: panel of 255 wild-type kinases (Homo sapiens, UniProt Q9UKE5)
[8] = molecular target: panel of 255 wild-type kinases (Homo sapiens, UniProt P42685)
[9] = molecular target: panel of 255 wild-type kinases (Homo sapiens, UniProt Q9BUB5)
[10] = molecular target: T3, panel of 255 wild-type kinases (Homo sapiens, UniProt P42681)
T3 sequence (P42681 1-527): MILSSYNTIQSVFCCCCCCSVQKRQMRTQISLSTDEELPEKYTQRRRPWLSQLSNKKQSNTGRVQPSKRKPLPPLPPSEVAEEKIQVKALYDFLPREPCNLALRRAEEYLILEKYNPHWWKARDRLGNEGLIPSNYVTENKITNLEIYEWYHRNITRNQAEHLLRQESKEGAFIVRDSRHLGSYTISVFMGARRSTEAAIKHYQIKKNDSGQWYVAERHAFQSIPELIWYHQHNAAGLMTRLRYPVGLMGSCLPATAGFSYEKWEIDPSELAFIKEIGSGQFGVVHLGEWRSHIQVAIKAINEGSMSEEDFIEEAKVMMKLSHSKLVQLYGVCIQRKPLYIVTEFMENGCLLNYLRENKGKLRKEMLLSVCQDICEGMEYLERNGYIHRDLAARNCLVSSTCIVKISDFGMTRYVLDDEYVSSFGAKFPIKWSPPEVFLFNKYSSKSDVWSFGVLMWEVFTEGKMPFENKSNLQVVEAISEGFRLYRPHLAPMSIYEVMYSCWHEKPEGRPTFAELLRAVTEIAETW

[11] = molecular target: panel of 255 wild-type kinases (Homo sapiens, UniProt P54764)
[12] = kinase FLT4, 1 µmol/L single concentration, ref DOI: 10.1158/1535-7163.MCT-18-0877
[13] = kinase JNK1, 1 µmol/L single concentration, ref DOI: 10.1158/1535-7163.MCT-18-0877
[14] = kinase TEC, 1 µmol/L single concentration, ref DOI: 10.1158/1535-7163.MCT-18-0877
[15] = MRCKα, 1 µmol/L single concentration, ref DOI: 10.1158/1535-7163.MCT-18-0877
[16] = CDK4/CycD3 kinase assay, 1 µmol/L single concentration, ref DOI: 10.1158/1535-7163.MCT-18-0877
[17] = NuaK2, 1 µmol/L single concentration, ref DOI: 10.1158/1535-7163.MCT-18-0877
[18] = kinase TNIK, 1 µmol/L single concentration, ref DOI: 10.1158/1535-7163.MCT-18-0877
[19] = kinase FRK, 1 µmol/L single concentration, ref DOI: 10.1158/1535-7163.MCT-18-0877
[20] = MNK1, 1 µmol/L single concentration, ref DOI: 10.1158/1535-7163.MCT-18-0877
[21] = kinase TXK, 1 µmol/L single concentration, ref DOI: 10.1158/1535-7163.MCT-18-0877
[22] = kinase EPHA4, 1 µmol/L single concentration, ref DOI: 10.1158/1535-7163.MCT-18-0877
[23] = kinase FLT4, 1 µmol/L single concentration, ref DOI: 10.1371/journal.pone.0092146
[24] = kinase JNK1, 1 µmol/L single concentration, ref DOI: 10.1371/journal.pone.0092146
[25] = kinase TEC, 1 µmol/L single concentration, ref DOI: 10.1371/journal.pone.0092146
[26] = MRCKα, 1 µmol/L single concentration, ref DOI: 10.1371/journal.pone.0092146
[27] = CDK4/CycD3 kinase assay, 1 µmol/L single concentration, ref DOI: 10.1371/journal.pone.0092146
[28] = NuaK2, 1 µmol/L single concentration, ref DOI: 10.1371/journal.pone.0092146
[29] = kinase TNIK, 1 µmol/L single concentration, ref DOI: 10.1371/journal.pone.0092146
[30] = kinase FRK, 1 µmol/L single concentration, ref DOI: 10.1371/journal.pone.0092146
[31] = MNK1, 1 µmol/L single concentration, ref DOI: 10.1371/journal.pone.0092146
[32] = kinase TXK, 1 µmol/L single concentration, ref DOI: 10.1371/journal.pone.0092146
[33] = kinase EPHA4, 1 µmol/L single concentration, ref DOI: 10.1371/journal.pone.0092146

O=C(c1ccc(F)c(F)c1Nc1ccc(I)cc1F)N1CC(O)([C@@H]2CCCCN2)C1 [cobimetinib]
%-inhibition at 1 µmol/L, FLT4 [1, 12]: -6%
%-inhibition at 1 µmol/L, JNK1 [2, 13]: -3%
%-inhibition at 1 µmol/L, TEC [3, 14]: -1%
%-inhibition, MRCKα [4, 15]: -7%
%-inhibition CDK4/CycD3 [5, 16]: 0.294%
%-inhibition, NuaK2 [6, 17]: -10%
%-inhibition at 1 µmol/L, TNIK [7, 18]: 1.06%
%-inhibition at 1 µmol/L, FRK [8, 19]: 0.866%
%-inhibition, MNK1 [9, 20]: 14%
%-inhibition at 1 µmol/L, TXK [10, 21]: 0.165%
%-inhibition at 1 µmol/L, EPHA4 [11, 22]: 3%

CC(C)(C)c1nc(-c2cccc(NS(=O)(=O)c3c(F)cccc3F)c2F)c(-c2ccnc(N)n2)s1 [dabrafenib]
%-inhibition at 1 µmol/L, FLT4 [1, 23]: 85%
%-inhibition at 1 µmol/L, JNK1 [2, 24]: -1.12%
%-inhibition at 1 µmol/L, TEC [3, 25]: 38%
%-inhibition, MRCKα [4, 26]: -1.84%
%-inhibition CDK4/CycD3 [5, 27]: 23%
%-inhibition, NuaK2 [6, 28]: 4.53%
%-inhibition at 1 µmol/L, TNIK [7, 29]: 15%
%-inhibition at 1 µmol/L, FRK [8, 30]: 81%
%-inhibition, MNK1 [9, 31]: 20%
%-inhibition at 1 µmol/L, TXK [10, 32]: 18%
%-inhibition at 1 µmol/L, EPHA4 [11, 33]: 12%

Cc1cc(Nc2ncc(Cl)c(Nc3ccccc3S(=O)(=O)C(C)C)n2)c(OC(C)C)cc1C1CCNCC1 [ceritinib]
%-inhibition at 1 µmol/L, FLT4 [1, 12]: 75%
%-inhibition at 1 µmol/L, JNK1 [2, 13]: 9%
%-inhibition at 1 µmol/L, TEC [3, 14]: -8%
%-inhibition, MRCKα [4, 15]: 1.61%
%-inhibition CDK4/CycD3 [5, 16]: 4.63%
%-inhibition, NuaK2 [6, 17]: 43%
%-inhibition at 1 µmol/L, TNIK [7, 18]: 25%
%-inhibition at 1 µmol/L, FRK [8, 19]: 85%
%-inhibition, MNK1 [9, 20]: -1.9%
%-inhibition at 1 µmol/L, TXK [10, 21]: 1.15%
%-inhibition at 1 µmol/L, EPHA4 [11, 22]: 1.33%

CCc1cc2c(cc1N1CCC(N3CCOCC3)CC1)C(C)(C)c1[nH]c3cc(C#N)ccc3c1C2=O [alectinib]
%-inhibition at 1 µmol/L, FLT4 [1, 12]: 39%
%-inhibition at 1 µmol/L, JNK1 [2, 13]: 3.24%
%-inhibition at 1 µmol/L, TEC [3, 14]: 1.06%
%-inhibition, MRCKα [4, 15]: -0.84%
%-inhibition CDK4/CycD3 [5, 16]: -1.89%
%-inhibition, NuaK2 [6, 17]: -1.06%
%-inhibition at 1 µmol/L, TNIK [7, 18]: 31%
%-inhibition at 1 µmol/L, FRK [8, 19]: 53%
%-inhibition, MNK1 [9, 20]: 18%
%-inhibition at 1 µmol/L, TXK [10, 21]: 2.46%
%-inhibition at 1 µmol/L, EPHA4 [11, 22]: 3%

CCCS(=O)(=O)Nc1ccc(F)c(C(=O)c2c[nH]c3ncc(-c4ccc(Cl)cc4)cc23)c1F [vemurafenib]
%-inhibition at 1 µmol/L, FLT4 [1, 23]: 24%
%-inhibition at 1 µmol/L, JNK1 [2]: 1.47%
%-inhibition at 1 µmol/L, TEC [3, 25]: -0.191%
%-inhibition, MRCKα [4, 26]: 0.383%
%-inhibition CDK4/CycD3 [5, 27]: -3.26%
%-inhibition, NuaK2 [6, 28]: 4.36%
%-inhibition at 1 µmol/L, TNIK [7, 29]: 33%
%-inhibition at 1 µmol/L, FRK [8, 30]: 62%
%-inhibition, MNK1 [9, 31]: 23%
%-inhibition at 1 µmol/L, TXK [10, 32]: 5%
%-inhibition at 1 µmol/L, EPHA4 [11, 33]: -2%

COc1cc(N2CCC(N3CCN(C)CC3)CC2)ccc1Nc1ncc(Cl)c(Nc2ccccc2P(C)(C)=O)n1 [brigatinib]
%-inhibition at 1 µmol/L, FLT4 [1]: 99%
%-inhibition at 1 µmol/L, JNK1 [2]: 40%
%-inhibition at 1 µmol/L, TEC [3]: 40%
%-inhibition, MRCKα [4]: 18%
%-inhibition CDK4/CycD3 [5]: 40%
%-inhibition, NuaK2 [6]: 98%
%-inhibition at 1 µmol/L, TNIK [7]: 19%
%-inhibition at 1 µmol/L, FRK [8]: 104%
%-inhibition, MNK1 [9]: 16%
%-inhibition at 1 µmol/L, TXK [10]: 76%
%-inhibition at 1 µmol/L, EPHA4 [11]: 3%

CC(=O)Nc1cccc(-n2c(=O)n(C3CC3)c(=O)c3c(Nc4ccc(I)cc4F)n(C)c(=O)c(C)c32)c1 [trametinib]
%-inhibition at 1 µmol/L, FLT4 [1, 23]: 1.51%
%-inhibition at 1 µmol/L, JNK1 [2, 24]: -4.68%
%-inhibition at 1 µmol/L, TEC [3, 25]: -7.53%
%-inhibition, MRCKα [4, 26]: -0.565%
%-inhibition CDK4/CycD3 [5, 27]: 5.62%
%-inhibition, NuaK2 [6, 28]: 9%
%-inhibition at 1 µmol/L, TNIK [7, 29]: 3%
%-inhibition at 1 µmol/L, FRK [8, 30]: -3%
%-inhibition, MNK1 [9, 31]: -3%
%-inhibition at 1 µmol/L, TXK [10, 32]: -4.66%
%-inhibition at 1 µmol/L, EPHA4 [11, 33]: -5.3%

CC#CC(=O)N1CCC[C@H]1c1nc(-c2ccc(C(=O)Nc3ccccn3)cc2)c2c(N)nccn12 [acalabrutinib]
%-inhibition at 1 µmol/L, FLT4 [1, 12]: 1.41%
%-inhibition at 1 µmol/L, JNK1 [2, 13]: -0.882%
%-inhibition at 1 µmol/L, TEC [3, 14]: 96%
%-inhibition, MRCKα [4, 15]: -7.47%
%-inhibition CDK4/CycD3 [5, 16]: -13%
%-inhibition, NuaK2 [6, 17]: 3%
%-inhibition at 1 µmol/L, TNIK [7, 18]: -0.812%
%-inhibition at 1 µmol/L, FRK [8, 19]: 47%
%-inhibition, MNK1 [9, 20]: 12%
%-inhibition at 1 µmol/L, TXK [10, 21]: 68%
%-inhibition at 1 µmol/L, EPHA4 [11, 22]: -3%
